This assay is described as follows: Example 1: liver, abdominal and subcutaneous fat weight after 28 days. The class given is in vivo, mouse (C57BL/6J male, 60% HFD DIO). The note with it: mean, HTD1801 200 mpk, empagliflozin 10 mpk in last 2 weeks (300/15 mpk before). The text has this:
After 5-week-old C57BL/6J male mice were acclimatized for 1 week, the weight of each mouse was weighed, and the mice were randomly divided into a control group and a model group by taking the weight as a main index, where 12 mice in the control group were fed with common feed (CD), and the mice in the remaining model group were fed with 60% high-fat feed (60% HFD) for 10-12 weeks to construct a DIO obesity model, with the average body weight being not less than 40 g. The mice fed with 60% HFD were grabbed and acclimatized with a solvent for 3 days, where the acclimatization with a solvent was performed by oral gavage of 0.5% CMC-Na, twice daily.
The food intake, the body weight, the body fat ratio, and the insulin level of the mice were respectively measured, followed by fasting blood glucose level, and the mice were randomly grouped according to Table 3 by taking the body weight as an index, and the remaining ungrouped mice were euthanized. After grouping, each group of mice was administered according to Table 3, the day of administration was defined as DO, and the administration volume of each drug was determined based on the results obtained by the calculation of 5 μL/g× mouse body weight (g).
For the combined administration group, the total administration volume was the sum of the administration volumes of two single drugs, and the administration sequence and the administration time were kept consistent at each administration. The mice were continuously fed with high-fat feed during the administration period until the administration was finished. During administration, 2 food intakes were measured per week (difference in feed weights at an interval of 24 h was measured); each group of mice was weighed once daily; postprandial blood glucose levels were measured weekly; blood was collected from the tail tip on day 6 and day 20, respectively, so as to measure fasting blood glucose levels once (blood was collected after fasting from 8:00 am to […]); on day 25 of administration, the body fat ratio and the lean mass of each group of mice were measured by MRI (the measurement period was kept consistent with that before grouping); after 4 weeks of administration intervention (day 28), each group of mice was fasted for 6 h and subjected to OGTT (0 min, 15 min, 30 min, 60 min, 90 min, 120 min) to detect their blood glucose levels, and meanwhile subjected to blood sampling via submaxillary vein (0 min, 15 min, 30 min, about 30 μL of blood sampled each time), and then the blood plasma was separated for detecting the insulin level by ELISA, where the separated blood plasma was more than 10 μL; the next day (D29) at the end of administration was set as the test endpoint, and the mice were fasted for 6 h in the morning and subjected to fasting blood glucose level measurement; subsequently, the mice were euthanized with CO2, blood was collected from the heart of each mouse for analysis, and each group of mice was dissected; the liver and subcutaneous, epididymal and mesenteric fat was collected, photographed and weighed, respectively.
After 28 days of administration, the mice were euthanized with CO2 the next day, and the mice of groups G1 to G5 were dissected, and liver and abdominal fat (including epididymis and mesentery), and subcutaneous fat were collected, photographed and weighed, respectively, and the results are shown in Table 6 below, FIG. 6, FIG. 7, and FIG. 8.

For `COc1ccc2cc3[n+](cc2c1OC)CCc1cc2c(cc1-3)OCO2.C[C@H](CCC(=O)[O-])[C@H]1CC[C@H]2[C@@H]3[C@@H](O)C[C@@H]4C[C@H](O)CC[C@]4(C)[C@H]3CC[C@]12C` [HTD1801, berberine ursodeoxycholate], the Epididymal fat weight turned out to be 2.31 g, the Liver weight was 0.98 g, the Mesenteric fat weight is recorded as 0.78 g and the Subcutaneous fat weight amounted to 2.32 g.

`OC[C@H]1O[C@@H](c2ccc(Cl)c(Cc3ccc(O[C@H]4CCOC4)cc3)c2)[C@H](O)[C@@H](O)[C@@H]1O` [Empagliflozin, empagliflozin] gave an Epididymal fat weight of 2.82 g, a Liver weight of 1.34 g, a Mesenteric fat weight of 1.20 g and a Subcutaneous fat weight of 3.02 g.

Values taken from patent US20260373165A1, “PHARMACEUTICAL COMBINATIONS AND COMPOSITIONS, AND METHODS OF USE THEREOF” (SHENZHEN HIGHTIDE BIOPHARMACEUTICAL LTD., priority 2022, published 2026).
